The subject of test [1] is Methicillin Resistant Staphylococcus aureus strain USA 200. The test is described as follows: Minimum inhibitory concentration (MIC), CLSI broth micro-dilution, S. aureus. In kind it is cell-based. The conditions noted are these: Staphylococcus aureus, MRSA / USA200; Table 6; MRSA USA 200; cation adjusted Mueller Hinton Broth + 0.002% Tween-80; 35° C., 22 hours. An outline of the steps:
(§1)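 Antibacterial potency is measured as MIC by the CLSI broth dilution method. Bacteria at OD600 0.0005 in Tween-80-supplemented cation-adjusted Mueller Hinton broth face ten twofold compound dilutions for 22 h at 35° C.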
A general note: Broth dilution looks for growth in wells or tubes with falling amounts of substance.

The subject of test [2] is Escherichia coli ATCC 25922. The test is described as follows: Minimum inhibitory concentration (MIC), CLSI broth micro-dilution, E. coli. Format: cell-based. The conditions noted are these: Escherichia coli, ATCC25922, 22 h, Table 6, cation adjusted Mueller Hinton Broth + 0.002% Tween-80, 35° C. An outline of the steps:
as §1

For the compound `Cc1nc(C2=CCC(C(C)(C)C)CC2)nc(C)c1C(=O)N[C@@H](CCN)C(=O)N(C)[C@@H]1C(=O)N[C@@H](C)C(=O)N[C@H](C(=O)NCC#N)Cc2ccc(OCCN)c(c2)-c2cc1ccc2OCCN` (mixture of isomers) [Compound 295, rac-(8S,11S,14S)-3,18-bis(2-aminoethoxy)-N-(cyanomethyl)-11-methyl-14-[methyl-[rac-(2S)-4-amino-2-[[2-(4-tert-butylcyclohexen-1-yl)-4,6-dimethyl-pyrimidine-5-carbonyl]amino]butanoyl]amino]-10,13-dioxo-9,12-diazatricyclo[13.3.1.12,6]icosa-1(18),2(20),3,5,15(19),16-hexaene-8-carboxamide], the MIC stood at 0.0078 µM in test [1] and 0.063 µM in test [2].

Take `C[C@@H]1NC(=O)[C@@H](N(C)C(=O)[C@H](CCN)NC(=O)c2cnc(-c3ccc(C(C)(C)C)cc3)c(=O)n2C)c2ccc(OCCN)c(c2)-c2cc(ccc2OCCN)C[C@@H](C(=O)NCC#N)NC1=O` (racemic) [Compound 386, rac-(8S,11S,14S)-3,18-bis(2-aminoethoxy)-N-(cyanomethyl)-11-methyl-14-[methyl-[rac-(2S)-4-amino-2-[[5-(4-tert-butylphenyl)-1-methyl-6-oxo-pyrazine-2-carbonyl]amino]butanoyl]amino]-10,13-dioxo-9,12-diazatricyclo[13.3.1.12,6]icosa-1(18),2(20),3,5,15(19),16-hexaene-8-carboxamide]: the MIC in test [1] was found to be 0.75 µM; in test [2], 8 µM.

As for `Cc1nc(C#CC2CCCCC2)ccc1C(=O)N[C@@H](CCN)C(=O)N(C)[C@@H]1C(=O)N[C@@H](C)C(=O)N[C@H](C(=O)NCC#N)Cc2ccc(OCCN)c(c2)-c2cc1ccc2OCCN` (racemic) [Compound 214, rac-(8S,11S,14S)-3,18-bis(2-aminoethoxy)-N-(cyanomethyl)-11-methyl-14-[methyl-[rac-(2S)-4-amino-2-[[6-(2-cyclohexylethynyl)-2-methyl-pyridine-3-carbonyl]amino]butanoyl]amino]-10,13-dioxo-9,12-diazatricyclo[13.3.1.12,6]icosa-1(18),2(20),3,5,15(19),16-hexaene-8-carboxamide], the results for the MIC in test [1] and in test [2] were 0.034 µM and 0.41 µM, respectively.

Turning to `Cc1nc(-c2ccc(OC3CCCCC3)cc2)nc(C)c1C(=O)N[C@@H](CCCNS(N)(=O)=O)C(=O)N(C)[C@@H]1C(=O)N[C@@H](C)C(=O)N[C@H](C(=O)NCC#N)Cc2ccc(OCCN)c(c2)-c2cc1ccc2OCCN` [Compound 503, (8S,11S,14S)-3,18-bis(2-aminoethoxy)-N-(cyanomethyl)-14-[[(2S)-2-[[2-[4-(cyclohexoxy)phenyl]-4,6-dimethyl-pyrimidine-5-carbonyl]amino]-5-(sulfamoylamino)pentanoyl]-methyl-amino]-11-methyl-10,13-dioxo-9,12-diazatricyclo[13.3.1.12,6]icosa-1(18),2(20),3,5,15(19),16-hexaene-8-carboxamide], the MIC in test [1] stood at 0.047 µM; in test [2], 1 µM.

Regarding `Cc1cc(-c2ccc(C(C)(C)C)cc2)ccc1C(=O)N[C@@H](CCN)C(=O)N(C)[C@@H]1C(=O)N[C@@H](C)C(=O)N[C@H](C(=O)NCC#N)Cc2ccc(OCCN)c(c2)-c2cc1ccc2OCCN` (racemic) [Compound 203, rac-(8S,11S,14S)-3,18-bis(2-aminoethoxy)-N-(cyanomethyl)-11-methyl-14-[methyl-[rac-(2S)-4-amino-2-[[4-(4-tert-butylphenyl)-2-methyl-benzoyl]amino]butanoyl]amino]-10,13-dioxo-9,12-diazatricyclo[13.3.1.12,6]icosa-1(18),2(20),3,5,15(19),16-hexaene-8-carboxamide], the minimal inhibitory concentration (MIC) is 0.031 µM in test [1] and 0.13 µM in test [2].

Regarding `Cc1nc(-c2ccc(C3(C)CC3)cc2)nc(C)c1C(=O)N[C@@H](CCN)C(=O)N(C)[C@@H]1C(=O)N[C@@H](C)C(=O)N[C@H](C(=O)NCC#N)Cc2ccc(OCCN)c(c2)-c2cc1ccc2OCCN` (racemic) [Compound 280, rac-(8S,11S,14S)-3,18-bis(2-aminoethoxy)-N-(cyanomethyl)-11-methyl-14-[methyl-[rac-(2S)-4-amino-2-[[4,6-dimethyl-2-[4-(1-methylcyclopropyl)phenyl]pyrimidine-5-carbonyl]amino]butanoyl]amino]-10,13-dioxo-9,12-diazatricyclo[13.3.1.12,6]icosa-1(18),2(20),3,5,15(19),16-hexaene-8-carboxamide], the MIC in test [1] came out at 0.031 µM; in test [2], 0.13 µM.

Regarding `Cc1nc(-c2ccc(C3(C)CC3)cc2)nc(C)c1C(=O)N[C@@H](CCN)C(=O)N(C)[C@@H]1C(=O)N[C@@H](C)C(=O)N[C@H](C(=O)NCC#N)Cc2ccc(O)c(c2)-c2cc1ccc2OCCN` (racemic) [Compound 543, rac-(8S,11S,14S)-18-(2-aminoethoxy)-N-(cyanomethyl)-3-hydroxy-11-methyl-14-[methyl-[rac-(2S)-4-amino-2-[[4,6-dimethyl-2-[4-(1-methylcyclopropyl)phenyl]pyrimidine-5-carbonyl]amino]butanoyl]amino]-10,13-dioxo-9,12-diazatricyclo[13.3.1.12,6]icosa-1(18),2(20),3,5,15(19),16-hexaene-8-carboxamide], the MIC in test [1] is 0.063 µM; in test [2] it was 0.35 µM.

As for `C[C@@H]1NC(=O)[C@@H](N(C)C(=O)[C@H](CCN)NC(=O)c2cnc(-c3ccc(C(C)(C)C)cc3)cc2N)c2ccc(OCCN)c(c2)-c2cc(ccc2OCCN)C[C@@H](C(=O)NCC#N)NC1=O` (racemic) [Compound 411, rac-(8S,11S,14S)-3,18-bis(2-aminoethoxy)-N-(cyanomethyl)-11-methyl-14-[methyl-[rac-(2S)-4-amino-2-[[4-amino-6-(4-tert-butylphenyl)pyridine-3-carbonyl]amino]butanoyl]amino]-10,13-dioxo-9,12-diazatricyclo[13.3.1.12,6]icosa-1(18),2(20),3,5,15(19),16-hexaene-8-carboxamide], the minimum inhibitory concentration (MIC) came out at 0.016 µM in test [1] and 0.25 µM in test [2].

Regarding `Cc1nc(-c2ccc(C(C)(C)C)cc2)ncc1C(=O)N[C@@H](CNC(=N)N)C(=O)N(C)[C@@H]1C(=O)N[C@@H](C)C(=O)N[C@H](C(=O)NCC#N)Cc2ccc(OCCN)c(c2)-c2cc1ccc2OCCN` (racemic) [Compound 462, rac-(8S,11S,14S)-3,18-bis(2-aminoethoxy)-N-(cyanomethyl)-11-methyl-14-[methyl-[rac-(2S)-2-[[2-(4-tert-butylphenyl)-4-methyl-pyrimidine-5-carbonyl]amino]-3-guanidino-propanoyl]amino]-10,13-dioxo-9,12-diazatricyclo[13.3.1.12,6]icosa-1(18),2(20),3,5,15(19),16-hexaene-8-carboxamide], the results for the MIC in test [1] and in test [2] were 0.027 µM and 5.4 µM, respectively.

For the compound `CCCCCCCc1ccc(-c2ncc(C(=O)N[C@@H](CCN)C(=O)N(C)[C@@H]3C(=O)N[C@@H](C)C(=O)N[C@H](C(=O)NCC#N)Cc4ccc(OCCN)c(c4)-c4cc3ccc4OCCN)c(C)n2)cc1` (racemic) [Compound 240, rac-(8S,11S,14S)-3,18-bis(2-aminoethoxy)-N-(cyanomethyl)-11-methyl-14-[methyl-[rac-(2S)-4-amino-2-[[2-(4-heptylphenyl)-4-methyl-pyrimidine-5-carbonyl]amino]butanoyl]amino]-10,13-dioxo-9,12-diazatricyclo[13.3.1.12,6]icosa-1(18),2(20),3,5,15(19),16-hexaene-8-carboxamide], the MIC in test [1] was 0.012 µM; in test [2], 0.13 µM.

Turning to `CNc1nc(-c2ccc(C(C)(C)C)cc2)nc(C)c1C(=O)N[C@@H](CCN)C(=O)N(C)[C@@H]1C(=O)N[C@@H](C)C(=O)N[C@H](C(=O)NCC#N)Cc2ccc(OCCN)c(c2)-c2cc1ccc2OCCN` (racemic) [Compound 425, rac-(8S,11S,14S)-3,18-bis(2-aminoethoxy)-N-(cyanomethyl)-11-methyl-14-[methyl-[rac-(2S)-4-amino-2-[[2-(4-tert-butylphenyl)-4-methyl-6-(methylamino)pyrimidine-5-carbonyl]amino]butanoyl]amino]-10,13-dioxo-9,12-diazatricyclo[13.3.1.12,6]icosa-1(18),2(20),3,5,15(19),16-hexaene-8-carboxamide], the figures for the MIC in test [1] and in test [2] were 0.016 µM and 0.19 µM, respectively.

Take `CCCCOc1ccc(-c2ncc(C(=O)N[C@@H](CCN)C(=O)N(C)[C@@H]3C(=O)N[C@@H](C)C(=O)N[C@H](C(=O)NCC#N)Cc4ccc(OCCN)c(c4)-c4cc3ccc4OCCN)c(C)n2)cc1Cl` (racemic) [Compound 247, rac-(8S,11S,14S)-3,18-bis(2-aminoethoxy)-N-(cyanomethyl)-11-methyl-14-[methyl-[rac-(2S)-4-amino-2-[[2-(4-butoxy-3-chloro-phenyl)-4-methyl-pyrimidine-5-carbonyl]amino]butanoyl]amino]-10,13-dioxo-9,12-diazatricyclo[13.3.1.12,6]icosa-1(18),2(20),3,5,15(19),16-hexaene-8-carboxamide]: the MIC in test [1] was 0.016 µM; in test [2], 0.19 µM.

On to `CCCC1(Oc2ccc(-c3nc(C)c(C(=O)N[C@@H](CCN)C(=O)N(C)[C@@H]4C(=O)N[C@@H](C)C(=O)N[C@H](C(=O)NCC#N)Cc5ccc(OCCN)c(c5)-c5cc4ccc5OCCN)c(C)n3)cc2)CC1` (racemic) [Compound 346, rac-(8S,11S,14S)-3,18-bis(2-aminoethoxy)-N-(cyanomethyl)-11-methyl-14-[methyl-[rac-(2S)-4-amino-2-[[4,6-dimethyl-2-[4-(1-propylcyclopropoxy)phenyl]pyrimidine-5-carbonyl]amino]butanoyl]amino]-10,13-dioxo-9,12-diazatricyclo[13.3.1.12,6]icosa-1(18),2(20),3,5,15(19),16-hexaene-8-carboxamide], for which the values for the MIC in test [1] and in test [2] were 0.016 µM and 0.13 µM, respectively.

Usually MIC stands for the lowest concentration found to suppress growth.

Source of the values: US20260274892A1, “MACROCYCLIC BROAD SPECTRUM ANTIBIOTICS” (RQx Pharmaceuticals, Inc., priority 2017, published 2026).
